Article PMC9783573, “Introduction of a SiFA Moiety into the D-Glutamate Chain of DOTA-PP-F11N Results in Radiohybrid-Based CCK-2R-Targeted Compounds with Improved Pharmacokinetics In Vivo” (Pharmaceuticals, 2022)
Non-standard residues stand in square brackets, D forms with d. Residues, ends and D or L forms follow the SMILES beside them. *: point of attachment. X1 = O=C(O)CN1CCN(CC(=O)O)CCN([C@H](CCC(=O)*)C(=O)O)CCN(CC(=O)O)CC1; Benzoyl(4-SiFtBu2) = CC(C)(C)[Si](F)(c1ccc(C(=O)*)cc1)C(C)(C)C; Nle = CCCC[C@H](N)C(=O)O; dDap = NC[C@@H](N)C(=O)O

Assays:
[1] = Biodistribution at 24 h p.i. in AR42J tumour-bearing CB17-SCID mice; type: in vivo; details: mouse, in vivo, 100 pmol, n = 4, mean ± SD
Method: (§1) Figure 4 Biodistribution of the reference compound, [^177Lu]Lu-DOTA-PP-F11N (blue), the α-linked [^177Lu]Lu-(R)-DOTAGA-rhCCK-9 (red) and the γ-linked [^177Lu]Lu-(R)-DOTAGA-rhCCK-16 (green) in selected organs (%ID/g) at 24 h p.i. in AR42J tumour-bearing CB17-SCID mice (100 pmol each, n = 4). Data is expressed as mean ± SD.
(§2) All animal experiments were conducted in accordance with general animal welfare regulations in Germany (German animal protection act, in the edition of the announcement, dated 18 May 2006, as amended by Article 280 of 19 June 2020, approval no. ROB-55.2-1-2532.Vet_02-18-109 by the General Administration of Upper Bavaria) and the institutional guidelines for the care and use of animals. CB17-SCID mice of both genders and aged 2–12 months (Charles River Laboratories International Inc., Sulzfeld, Germany) were allowed to acclimate at the in-house animal facility for at least one week prior to tumour cell inoculation was performed. Tumour xenografts were generated using AR42J cells (5.0 × 10^6 cells per 200 µL) suspended in a 1/1 mixture (v/v) of RPMI 1640 medium and Cultrex® Basement Membrane Matrix Type 3 (Trevigen, Gaithersburg, MD, USA). This suspension was inoculated subcutaneously onto the right shoulder and animals were used when tumour volume was >100 mm^3 (1–2 week after inoculation). Exclusion criteria for animals from an experiment were either weight loss higher than 20%, a tumour size above 1500 mm^3, an ulceration of the tumour, respiratory distress or a change of behaviour. None of these criteria applied to any animal from the experiment. Neither randomisation nor blinding was applied in the allocation of the experiments. Health status is SPF according to FELASA.
(§3) For biodistribution studies, the ^177Lu-labelled compound (approx. 2–3 MBq, 100 pmol) was injected into a lateral tail vein (n = 4) of anesthetised (2% isoflurane) AR42J tumour-bearing CB-17-SCID mice. At 24 h post-injection (p.i.), the mice were euthanised. Thereafter, the pertinent organs were removed, weighed and measured using a γ-counter.

[2] = test system: AR42J tumour-bearing CB17-SCID mice; assay: as above; type: in vivo; details: vs [177Lu]Lu-DOTA-PP-F11N
Method: as §1, §2, §3

[3] = in vivo; parameters: species or system mice; details: mouse, 24 h p.i.
Method: as §3
For all competition studies, 2.90 mg/kg (40 nmol) of [^natLu]Lu-DOTA-MGS5 (10^−3 M in phosphate-buffered saline) were co-administered.
Figure S4. (a) Biodistribution of [177Lu]Lu-DOTA-rhCCK-16 (100 pmol) co-injected with [natLu]Lu-DOTA-MGS5
(40 nmol) in selected organs (%ID/g) at 24 h p.i. in AR42J tumour-bearing CB17-SCID mice. Data is expressed as
mean ± SD (n = 2). (b) Representative µSPECT/CT images of [177Lu]Lu-DOTA-rhCCK-16 co-injected with [natLu]Lu-
DOTA-MGS5 (40 nmol) at 24 h p.i. in AR42J tumour-bearing CB17- SCID mice.
(1 picture or pasted object on this page, not shown here)

[4] = first patient studies; cited from earlier work
[5] = AR42J tumour, read-out: Biodistribution, Tumour
[6] = read-out: Biodistribution, Adrenal
[7] = read-out: Biodistribution, Blood
[8] = read-out: Biodistribution, Bone
[9] = read-out: Biodistribution, Heart
[10] = read-out: Biodistribution, Intestine
[11] = read-out: Biodistribution, Kidney
[12] = read-out: Biodistribution, Liver
[13] = read-out: Biodistribution, Lung
[14] = read-out: Biodistribution, Muscle
[15] = read-out: Biodistribution, Pancreas
[16] = read-out: Biodistribution, Spleen
[17] = read-out: Biodistribution, Stomach

Compound | tissue uptake at 24 h [1, 5] | tissue uptake at 24 h [1, 6] | tissue uptake at 24 h [1, 7] | tissue uptake at 24 h [1, 8] | tissue uptake at 24 h [1, 9] | tissue uptake at 24 h [1, 10] | tissue uptake at 24 h [1, 11] | tissue uptake at 24 h [1, 12] | tissue uptake at 24 h [1, 13] | tissue uptake at 24 h [1, 14] | tissue uptake at 24 h [1, 15] | tissue uptake at 24 h [1, 16] | tissue uptake at 24 h [1, 17] | fold higher activity levels in the tumour than the reference ligand [2] | further results
CCCC[C@H](NC(=O)[C@H](Cc1c[nH]c2ccccc12)NC(=O)CNC(=O)[C@H](Cc1ccc(O)cc1)NC(=O)[C@H](C)NC(=O)[C@@H](CCC(=O)O)NC(=O)[C@@H](CCC(=O)O)NC(=O)[C@@H](CCC(=O)O)NC(=O)[C@@H](CCC(=O)O)NC(=O)[C@@H](CCC(=O)O)NC(=O)[C@@H](CCC(=O)O)NC(=O)[C@@H](CCC(=O)O)NC(=O)[C@@H](CCC(=O)O)NC(=O)[C@@H](CNC(=O)c1ccc([Si](F)(C(C)(C)C)C(C)(C)C)cc1)NC(=O)CC[C@H](C(=O)O)N1CCN(CC(=O)O)CCN(CC(=O)O)CCN(CC(=O)O)CC1)C(=O)N[C@@H](CC(=O)O)C(=O)N[C@@H](Cc1ccccc1)C(N)=O [[nat/177Lu]Lu-(R)-DOTAGA-rhCCK-9, metal not drawn] (X1-[dDap](Benzoyl(4-SiFtBu2))[dE][dE][dE][dE][dE][dE][dE][dE]AYGW[Nle]DF-NH2) | 6.4 ± 1.48 %ID/g | 0.45 ± 0.3 %ID/g | 0.02 %ID/g | 0.82 ± 0.42 %ID/g | 0.09 ± 0.03 %ID/g | 0.26 ± 0.04 %ID/g | 84.4 ± 22.7 %ID/g | 1.07 ± 0.54 %ID/g | 0.1 ± 0.05 %ID/g | 0.03 ± 0.01 %ID/g | 0.31 ± 0.2 %ID/g | 0.7 ± 0.69 %ID/g | 1.8 ± 0.37 %ID/g | 3 fold | –
CCCC[C@H](NC(=O)[C@H](Cc1c[nH]c2ccccc12)NC(=O)CNC(=O)[C@H](Cc1ccc(O)cc1)NC(=O)[C@H](C)NC(=O)CC[C@@H](NC(=O)CC[C@@H](NC(=O)CC[C@@H](NC(=O)CC[C@@H](NC(=O)CC[C@@H](NC(=O)CC[C@@H](NC(=O)[C@@H](CNC(=O)c1ccc([Si](F)(C(C)(C)C)C(C)(C)C)cc1)NC(=O)CC[C@H](C(=O)O)N1CCN(CC(=O)O)CCN(CC(=O)O)CCN(CC(=O)O)CC1)C(=O)O)C(=O)O)C(=O)O)C(=O)O)C(=O)O)C(=O)O)C(=O)N[C@@H](CC(=O)O)C(=O)N[C@@H](Cc1ccccc1)C(N)=O [[nat/177Lu]Lu-(R)-DOTAGA-rhCCK-16, metal not drawn] | 15.7 ± 3.3 %ID/g | 1.49 ± 1.5 %ID/g | 0.01 %ID/g | 0.17 ± 0.02 %ID/g | 0.11 ± 0.01 %ID/g | 0.2 ± 0.04 %ID/g | 85.5 ± 11.3 %ID/g | 1.18 ± 0.27 %ID/g | 0.09 ± 0.02 %ID/g | 0.05 ± 0.01 %ID/g | 0.39 ± 0.12 %ID/g | 0.62 ± 0.03 %ID/g | 3.51 ± 0.5 %ID/g | 8 fold | tissue uptake at 24 h ([3]; CB17-SCID, iv, total radioactivity, competition, read-out: Activity levels in the stomach, co-injection of excess [natLu]Lu-DOTA-MGS5): < 0.3 %ID/g; tissue uptake at 24 h ([3]; CB17-SCID, iv, total radioactivity, competition, read-out: activity levels in the tumour, co-injection of excess [natLu]Lu-DOTA-MGS5): < 1 %ID/g; tissue uptake at 24 h ([3]; 100 pmol + 40 nmol [natLu]Lu-DOTA-MGS5, n = 2, read-out: Biodistribution competition studies, Adrenal): 0.4 ± 0.11 %ID/g; tissue uptake at 24 h ([3]; 100 pmol + 40 nmol [natLu]Lu-DOTA-MGS5, n = 2, read-out: Biodistribution competition studies, Blood): 0.05 %ID/g; tissue uptake at 24 h ([3]; 100 pmol + 40 nmol [natLu]Lu-DOTA-MGS5, n = 2, read-out: Biodistribution competition studies, Bone): 0.24 ± 0.04 %ID/g; tissue uptake at 24 h ([3]; 100 pmol + 40 nmol [natLu]Lu-DOTA-MGS5, n = 2, read-out: Biodistribution competition studies, Heart): 0.13 ± 0.01 %ID/g; tissue uptake at 24 h ([3]; 100 pmol + 40 nmol [natLu]Lu-DOTA-MGS5, n = 2, read-out: Biodistribution competition studies, Intestine): 0.16 ± 0.03 %ID/g; tissue uptake at 24 h ([3]; 100 pmol + 40 nmol [natLu]Lu-DOTA-MGS5, n = 2, read-out: Biodistribution competition studies, Kidney): 105 ± 21 %ID/g; tissue uptake at 24 h ([3]; 100 pmol + 40 nmol [natLu]Lu-DOTA-MGS5, n = 2, read-out: Biodistribution competition studies, Liver): 2.31 ± 0.66 %ID/g; tissue uptake at 24 h ([3]; 100 pmol + 40 nmol [natLu]Lu-DOTA-MGS5, n = 2, read-out: Biodistribution competition studies, Lung): 2.59 ± 1.27 %ID/g; tissue uptake at 24 h ([3]; 100 pmol + 40 nmol [natLu]Lu-DOTA-MGS5, n = 2, read-out: Biodistribution competition studies, Muscle): 0.06 ± 0.04 %ID/g; tissue uptake at 24 h ([3]; 100 pmol + 40 nmol [natLu]Lu-DOTA-MGS5, n = 2, read-out: Biodistribution competition studies, Pancreas): 0.2 ± 0.01 %ID/g; tissue uptake at 24 h ([3]; 100 pmol + 40 nmol [natLu]Lu-DOTA-MGS5, n = 2, read-out: Biodistribution competition studies, Spleen): 1.73 ± 0.01 %ID/g; tissue uptake at 24 h ([3]; 100 pmol + 40 nmol [natLu]Lu-DOTA-MGS5, n = 2, read-out: Biodistribution competition studies, Stomach): 0.15 ± 0.04 %ID/g; tissue uptake at 24 h ([3]; 100 pmol + 40 nmol [natLu]Lu-DOTA-MGS5, n = 2, read-out: Biodistribution competition studies, Tumour): 0.91 ± 0.04 %ID/g
CCCC[C@H](NC(=O)[C@H](Cc1c[nH]c2ccccc12)NC(=O)CNC(=O)[C@H](Cc1ccc(O)cc1)NC(=O)[C@H](C)NC(=O)[C@@H](CCC(=O)O)NC(=O)[C@@H](CCC(=O)O)NC(=O)[C@@H](CCC(=O)O)NC(=O)[C@@H](CCC(=O)O)NC(=O)[C@@H](CCC(=O)O)NC(=O)[C@@H](CCC(=O)O)NC(=O)CN1CCN(CC(=O)O)CCN(CC(=O)O)CCN(CC(=O)O)CC1)C(=O)N[C@@H](CC(=O)O)C(=O)N[C@@H](Cc1ccccc1)C(N)=O [[nat/177Lu]Lu-DOTA-PP-F11N, metal not drawn, reference compound] | 1.88 ± 0.82 %ID/g | 0.03 ± 0.03 %ID/g | – | 0.03 ± 0.01 %ID/g | – | 0.04 ± 0.02 %ID/g | 3.08 ± 0.51 %ID/g | 0.67 ± 0.64 %ID/g | – | – | 0.05 ± 0.01 %ID/g | 0.07 ± 0.03 %ID/g | 0.36 ± 0.05 %ID/g | – | median (interquartile range) absorbed tumour dose [4]: 0.88 Gy/GBq
